From patent US10683293B2, “Optionally fused heterocyclyl-substituted derivatives of pyrimidine useful for the treatment of inflammatory, metabolic, oncologic and autoimmune diseases” (NUEVOLUTION A/S, priority 2014, dated 2020) come the findings set out here.

Assay [1] has as its target T1, human RORγt (Ligand Binding Domain) (Homo sapiens, UniProt P51449).
T1 construct: purchased Crelux (Planegg, Germany) batch no PC5032-1
T1 sequence (P51449 269-508 limits assumed): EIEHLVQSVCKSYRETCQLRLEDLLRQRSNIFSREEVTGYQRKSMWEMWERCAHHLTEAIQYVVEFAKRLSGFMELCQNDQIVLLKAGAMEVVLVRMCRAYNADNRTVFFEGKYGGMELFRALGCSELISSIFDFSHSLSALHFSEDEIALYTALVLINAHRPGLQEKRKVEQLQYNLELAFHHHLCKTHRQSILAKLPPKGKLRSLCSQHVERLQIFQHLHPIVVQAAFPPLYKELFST
Description: Fluorescence Polarization (FP) Assay. Conditions: 100 nM human RORγt LBD, 25 nM TAMRA probe, values are activity range bounds. The essentials: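 In vitro fluorescence polarization binding assay on the RORγt ligand-binding pocket. A TAMRA-labelled RORγt ligand probe (MW 910 g/mol) was used, with DMSO as negative control.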
On the technique in general: In fluorescence polarisation assays a small probe gives low polarisation when free and higher when bound to something large.

Assay [2] addresses T2, ligand binding domain of human RORγ (Homo sapiens, UniProt P51449).
T2 construct: host or cells: HEK293t
T2 sequence (P51449 269-508 limits assumed): T1 sequence (P51449 269-508 limits assumed)
Description: RORγ Reporter Assay (Gal4). The format is cell-based. The conditions noted are these: for inhibition at 1 µM: HEK-293T, 1 μM test compound, HEK293t RORγ reporter cells, 24 hour, read-out: Gal4 activity range @ 1 μM (% inhibition); for Gal4 activity range @ 0.1 μM (% inhibition): RORγ Reporter Assay (Gal4), HEK293t reporter cells, compound at 0.1 μM, values are activity range bounds. The essentials:
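HEK293t cells expressing Gal4 DBD–human RORγ LBD hybrid with Gal4-UAS firefly luciferase reporter; compounds at final 1,000 nM and 100 nM (0.1% DMSO), triplicate, medium with 10% charcoal-stripped FBS, 24 h at 37 °C. Luminescence read; percent reduction of RORγ activity calculated versus vehicle-only wells.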
Background: Reporter assays use an easily measured gene product as a stand-in for the process of interest.

pIC50: −log10 of the molar value.

In general, pIC50 refers to the negative decadic logarithm of the IC50, by convention in mol/L. In general, inhibition refers to the share of the control response that was lost under treatment. Molecule `NC(=O)Cc1ccc(CNc2ncnc(N(Cc3c(Cl)cccc3Cl)C3CC3)c2F)cc1` [Example A77, 2-[4-[[[6-[cyclopropyl-[(2,6-dichlorophenyl)methyl]amino]-5-fluoro-pyrimidin-4-yl]amino]methyl]phenyl]acetamide] gave a pIC50 in assay [1] above 6.30. Moreover, in assay [2], the inhibition at 1 µM is above 50% and the “Gal4 activity range @ 0.1 μM (% inhibition)” value is above 20 % inhibition.
In the same order, the values of `Fc1c(NCC2CCOCC2)ncnc1N(Cc1ccc(C(F)(F)F)cc1)C1CC1` [Example A12, N4-cyclopropyl-5-fluoro-N6-(tetrahydropyran-4-ylmethyl)-N4-[[4-(trifluoromethyl)phenyl]methyl] pyrimidine-4,6-diamine] are above 6.00, above 80% and above 20 % inhibition.
Taken in the same sequence, the figures for `NC(=O)Cc1ccc(CNc2ncnc(N(Cc3cccc(C(F)(F)F)c3)C3CC3)c2F)cc1` [Example A101, 2-[4-[[[6-[cyclopropyl-[[3-(trifluoromethyl)phenyl]methyl]amino]-5-fluoro-pyrimidin-4-yl]amino]methyl]phenyl]acetamide] were above 6.30, above 50% and above 50 % inhibition.
For the molecule `NC(=O)Cc1ccc(CNc2cc(N(Cc3ccc(C(F)(F)F)cc3)C3CC3)ncn2)cc1` [Example A107, 2-[4-[[[6-[cyclopropyl-[[4-(trifluoromethyl)phenyl]methyl]amino]pyrimidin-4-yl]amino]methyl]phenyl]acetamide], in assay [1], the pIC50 is above 6.00. Besides, in assay [2], the inhibition at 1 µM is above 50% and the “Gal4 activity range @ 0.1 μM (% inhibition)” value was above 0 % inhibition.
In the same order, the values of `NC(=O)Cc1ccc(CNc2ncnc(N(Cc3ccc(C(F)(F)F)cc3)C3CCOC3)c2F)cc1` (centres unmarked) [Example A4, 2-[4-[[[5-fluoro-6-[tetrahydrofuran-3-yl-[[4-(trifluoromethyl)phenyl]methyl]amino]pyrimidin-4-yl]amino]methyl]phenyl]acetamide] are above 5.70, above 50% and above 0 % inhibition.
Taken in the same sequence, the figures for `CS(=O)(=O)Nc1ncc(CNc2ncnc(N(Cc3ccc(C(F)(F)F)cc3)C3CC3)c2F)cc1F` [Example A109, N-[5-[[[6-[cyclopropyl-[[4-(trifluoromethyl)phenyl]methyl]amino]-5-fluoro-pyrimidin-4-yl]amino]methyl]-3-fluoro-2-pyridyl]methanesulfonamide] were above 6.30, above 80% and above 0 % inhibition.
The molecule `CCCn1nc(C)cc1CN(C)c1ncnc(NCc2ccc(CC(=O)O)cc2)c1F` [Example A150, 2-[4-[[[5-fluoro-6-[methyl-[(5-methyl-2-propyl-pyrazol-3-yl)methyl]amino]pyrimidin-4-yl]amino]methyl]phenyl]acetic acid] had a pIC50 in assay [1] above 5.70. The inhibition at 1 µM in assay [2] is above 20%.
On to `NC(=O)Cc1ccc(CNc2ncnc(N(Cc3ccc(C(F)(F)F)cc3)C3CC3)c2F)cn1` [Example A78, 2-[5-[[[6-[cyclopropyl-[[4-(trifluoromethyl)phenyl]methyl]amino]-5-fluoro-pyrimidin-4-yl]amino]methyl]-2-pyridyl]acetamide], for which the pIC50 in assay [1] is above 6.30. In addition, in assay [2], the inhibition at 1 µM is above 80% and the “Gal4 activity range @ 0.1 μM (% inhibition)” value was above 50 % inhibition.
`CS(=O)(=O)N1CC2CCC(Nc3ncnc(N(Cc4ccc(C(F)(F)F)cc4)C4CC4)c3F)C2C1` (centres unmarked) [Example A175, N6-cyclopropyl-5-fluoro-N4-(2-methylsulfonyl-3,3a,4,5,6,6a-hexahydro-1H-cyclopenta[c]pyrrol-4-yl)-N6-[[4-(trifluoromethyl)phenyl]methyl] pyrimidine-4,6-diamine]: the pIC50 in assay [1] was above 6.30. Also, in assay [2], the inhibition at 1 µM was above 80% and the “Gal4 activity range @ 0.1 μM (% inhibition)” value is given as above 50 % inhibition.
In the same order, the values of `CS(=O)(=O)c1ccc(CCNc2ncnc(N(Cc3ccc(C(F)(F)F)cc3)C3CC3)c2F)cc1` [Example A147, N4-cyclopropyl-5-fluoro-N6-[2-(4-methylsulfonylphenyl)ethyl]-N4-[[4-(trifluoromethyl)phenyl]methyl] pyrimidine-4,6-diamine] are above 6.30, above 80% and above 50 % inhibition.
In the same order, the values of `CS(=O)(=O)NCC1(CNc2ncnc(N(Cc3ccc(C(F)(F)F)cc3)C3CC3)c2F)CCOCC1` [Example A63, N-[[4-[[[6-[cyclopropyl-[[4-(trifluoromethyl)phenyl]methyl]amino]-5-fluoro-pyrimidin-4-yl]amino]methyl]tetrahydropyran-4-yl]methyl]methanesulfonamide] are above 6.30, above 80% and above 80 % inhibition.
For the molecule `CC(c1ccc(C(F)(F)F)cc1)N(c1ncnc(NCc2ccc(NS(=O)(=O)C(F)(F)F)cc2)c1F)C1CC1` (centres unmarked) [Example A74, N-[4-[[[6-[cyclopropyl-[1-[4-(trifluoromethyl)phenyl]ethyl]amino]-5-fluoro-pyrimidin-4-yl]amino]methyl]phenyl]-1,1,1-trifluoro-methanesulfonamide], the pIC50 in assay [1] is above 6.30. In assay [2], the inhibition at 1 µM is above 50% and the “Gal4 activity range @ 0.1 μM (% inhibition)” value was above 0 % inhibition.
For the molecule `NC(=O)Cc1ccc(CNc2ncnc(N(Cc3ccc(OC(F)(F)F)cc3)C3CC3)c2F)cc1` [Example A6, 2-[4-[[[6-[cyclopropyl-[[4-(trifluoromethoxy)phenyl]methyl]amino]-5-fluoro-pyrimidin-4-yl]amino]methyl]phenyl]acetamide], the pIC50 in assay [1] is above 6.30. Further, in assay [2], the inhibition at 1 µM is above 80% and the “Gal4 activity range @ 0.1 μM (% inhibition)” value is on record as above 80 % inhibition.
Taken in the same sequence, the figures for `CN(Cc1cccc(-n2cccn2)c1)c1ncnc(NC[C@H]2CC[C@H](NS(=O)(=O)C(F)(F)F)CC2)c1F` [Example A142, 1,1,1-trifluoro-N-[4-[[[5-fluoro-6-[methyl-[(3-pyrazol-1-ylphenyl)methyl]amino]pyrimidin-4-yl]amino]methyl]cyclohexyl] methanesulfonamide] were above 6.30, above 50% and above 0 % inhibition.
In assay [1], `CN(Cc1cccc(-n2cccn2)c1)c1ncnc(NCc2ccc(CC(N)=O)cc2)c1F` [Example A58, 2-[4-[[[5-fluoro-6-[methyl-[(3-pyrazol-1-ylphenyl)methyl]amino]pyrimidin-4-yl]amino]methyl]phenyl]acetamide] had a pIC50 above 6.30. Also, in assay [2], the inhibition at 1 µM is above 80% and the “Gal4 activity range @ 0.1 μM (% inhibition)” value was above 20 % inhibition.
For the molecule `FCC1(CNc2ncnc(N(Cc3ccc(C(F)(F)F)cc3)C3CC3)c2F)CCOCC1` [Example A75, N4-cyclopropyl-5-fluoro-N6-[[4-(fluoromethyl)tetrahydropyran-4-yl]methyl]-N4-[[4-(trifluoromethyl)phenyl]methyl] pyrimidine-4,6-diamine], in assay [1], the pIC50 was above 6.30. Further, in assay [2], the inhibition at 1 µM was above 80% and the “Gal4 activity range @ 0.1 μM (% inhibition)” value was above 80 % inhibition.
